The text below walks through data of patent US9163020B2, “Azaindole compounds, synthesis thereof, and methods of using the same” (Global Alliance for TB Drug Development, priority 2013, dated 2015).

SMILES strings stand for the structures. ≈ marks a conversion by molar mass, not a printed value. Read-outs that look alike come from different tables or passages of the source.

The subject of this assay is Mycobacterium tuberculosis (Mtb) H37Rv ATCC 27294. As to the kind of experiment: microbe, parasite or virus in culture. Type of assay: cell-based. The conditions noted are these: Table 1, read-out: Mtb MIC.

For `COc1cnc2c(C(=O)NCC(F)F)cn(Cc3ncnc(OC)c3C)c2c1` [Compound 37, N-(2,2-difluoroethyl)-6-methoxy-1-((6-methoxy-5-methylpyrimidin-4-yl)methyl)-1H-pyrrolo[3,2-b]pyridine-3-carboxamide], where the note is “Mycobacterium tuberculosis”, the MIC is below 0.39 µM.

With `COc1ccc(F)cc1Cn1cc(C(=O)NCC2CC2)c2nccc(C)c21` [Compound 2, N-(Cyclopropylmethyl)-1-(5-fluoro-2-methoxybenzyl)-7-methyl-1H-pyrrolo[3,2-b]pyridine-3-carboxamide], for the setting “Mycobacterium tuberculosis”, the MIC came out at 6.25 µM (≈ 2.3 µg/mL).

Consider `COc1cnc2c(C(=O)NCCF)cn(Cc3ncnc(OC(F)F)c3C)c2c1` [Compound 42, 1-((6-(Difluoromethoxy)-5-methylpyrimidin-4-yl)methyl)-N-(2-fluoroethyl)-6-methoxy-1H-pyrrolo[3,2-b]pyridine-3-carboxamide], for which the MIC (Mycobacterium tuberculosis) is below 0.39 µM.

Take `COc1cnc2c(C(=O)NCCF)cn(Cc3ncnc(N(C)C)c3C)c2c1` [Compound 39, 1-((6-(Dimethylamino)-5-methylpyrimidin-4-yl)methyl)-N-(2-fluoroethyl)-6-methoxy-1H-pyrrolo[3,2-b]pyridine-3-carboxamide]: the MIC (Mycobacterium tuberculosis) is below 0.39 µM.

In the case of `Cc1cnc2c(C(=O)NCC(F)F)cn(Cc3ncc(C)nc3C)c2c1` [Compound 46, N-(2,2-difluoroethyl)-1-((3,5-dimethylpyrazin-2-yl)methyl)-6-methyl-1H-pyrrolo[3,2-b]pyridine-3-carboxamide], the MIC (Mycobacterium tuberculosis) is below 0.39 µM.

Turning to `COc1cnc2c(C(=O)NCCO)cn(Cc3ncnc(OC(F)F)c3C)c2c1` [Compound 44, 1-((6-(difluoromethoxy)-5-methylpyrimidin-4-yl)methyl)-N-(2-hydroxyethyl)-6-methoxy-1H-pyrrolo[3,2-b]pyridine-3-carboxamide], under “Mycobacterium tuberculosis”, the MIC was 0.78 µM (≈ 0.318 µg/mL).

`COc1ncnc(Cn2cc(C(=O)NCC3CC3)c3ncc(C)cc32)c1C` [Compound 10, N-(cyclopropylmethyl)-1-((6-methoxy-5-methylpyrimidin-4-yl)methyl)-6-methyl-1H-pyrrolo[3,2-b]pyridine-3-carboxamide]: where the note is “Mycobacterium tuberculosis”, the MIC was 1.56 µM (≈ 0.57 µg/mL).

As to `COc1ncnc(Cn2cc(C(=O)NCC(F)F)c3ncc(C)cc32)c1C` [Compound 33, N-(2,2-difluoroethyl)-1-((6-methoxy-5-methylpyrimidin-4-yl)methyl)-6-methyl-1H-pyrrolo[3,2-b]pyridine-3-carboxamide], the MIC is below 0.39 µM.

`Cc1cnc2c(C(=O)NCCF)cn(Cc3ncnc(N(C)C)c3C)c2c1` [Compound 29, 1-((6-(dimethylamino)-5-methylpyrimidin-4-yl)methyl)-N-(2-fluoroethyl)-6-methyl-1H-pyrrolo[3,2-b]pyridine-3-carboxamide]: the MIC (Mycobacterium tuberculosis) worked out at 1.56 µM (≈ 0.578 µg/mL).

In the case of `COCCNC(=O)c1cn(Cc2ncnc(OC)c2C)c2cc(C)cnc12` [Compound 11, 1-((6-methoxy-5-methylpyrimidin-4-yl)methyl)-N-(2-methoxyethyl)-6-methyl-1H-pyrrolo[3,2-b]pyridine-3-carboxamide], the MIC (Mycobacterium tuberculosis) amounted to 0.781 µM (≈ 0.289 µg/mL).

For `Cc1cnc2c(C(=O)NCCF)cn(Cc3ncc(C)nc3C)c2c1` [Compound 45, 1-((3,5-dimethylpyrazin-2-yl)methyl)-N-(2-fluoroethyl)-6-methyl-1H-pyrrolo[3,2-b]pyridine-3-carboxamide], the MIC (Mycobacterium tuberculosis) is below 0.39 µM.

In the case of `COCCNC(=O)c1cn(Cc2ncnc(OC)c2C)c2cccnc12` [Compound 7, 1-((6-methoxy-5-methylpyrimidin-4-yl)methyl)-N-(2-methyl)-1H-pyrrolo[3,2-b]pyridine-3-carboxamide], the MIC (Mycobacterium tuberculosis) is below 1.33 µM.

Consider `Cc1cnc2c(C(=O)NCCF)cn(Cc3cc(F)c(C)nc3C)c2c1` [Compound 26, 1-((5-fluoro-2,6-dimethylpyridin-3-yl)methyl)-N-(2-fluoroethyl)-6-methyl-1H-pyrrolo[3,2-b]pyridine-3-carboxamide], for which, under “Mycobacterium tuberculosis”, the MIC was 3.12 µM (≈ 1.12 µg/mL).

On to `COc1ncc(C(F)(F)F)cc1Cn1cc(C(=O)NC[C@H](C)F)c2ncc(C)cc21` [Compound 22, (S)—N-(2-fluoropropyl)-1-((2-methoxy-5-(trifluoromethyl)pyridin-3-yl)methyl)-6-methyl-1H-pyrrolo[3,2-b]pyridine-3-carboxamide], for which the MIC (Mycobacterium tuberculosis) is below 0.391 µM.

For `COc1cnc2c(C(=O)NCCF)cn(Cc3ncnc(OC)c3C)c2c1` [Compound 36, N-(2-fluoroethyl)-6-methoxy-1-((6-methoxy-5-methylpyrimidin-4-yl)methyl)-1H-pyrrolo[3,2-b]pyridine-3-carboxamide], the MIC (Mycobacterium tuberculosis) was below 0.39 µM.

With `COc1nc(C)c(F)cc1Cn1cc(C(=O)NCCF)c2ncccc21` [Compound 18, 1-((5-fluoro-2-methoxy-6-methylpyridin-3-yl)methyl)-N-(2-fluoroethyl)-1H-pyrrolo[3,2-b]pyridine-3-carboxamide], the MIC (Mycobacterium tuberculosis) is 0.781 µM (≈ 0.281 µg/mL).

Turning to `COc1ncnc(Cn2cc(C(=O)NCCO)c3ncccc32)c1C` [Compound 9, N-(2-hydroxyethyl)-1-((6-methoxy-5-methylpyrimidin-4-yl)methyl)-1H-pyrrolo[3,2-b]pyridine-3-carboxamide], the MIC (Mycobacterium tuberculosis) was found to be 13.9 µM (≈ 4.75 µg/mL).

Turning to `COCCNC(=O)c1cn(Cc2cc(F)cnc2OC)c2cccnc12` [Compound 6], the MIC (Mycobacterium tuberculosis) came out at 1.3 µM (≈ 0.466 µg/mL).

For `COc1cnc2c(C(=O)NCCO)cn(Cc3ncnc(OC)c3C)c2c1` [Compound 38, N-(2-hydroxyethyl)-6-methoxy-1-((6-methoxy-5-methylpyrimidin-4-yl)methyl)-1H-pyrrolo[3,2-b]pyridine-3-carboxamide], for the setting “Mycobacterium tuberculosis”, the MIC is 0.78 µM (≈ 0.29 µg/mL).

Turning to `Cc1c(OCC(F)(F)F)ccnc1Cn1cc(C(=O)NCCF)c2ncccc21` [Compound 12, N-(2-fluoroethyl)-1-((3-methyl-4-(2,2,2-trifluoroethoxy)pyridin-2-yl)methyl)-1H-pyrrolo[3,2-b]pyridine-3-carboxamide], the MIC (Mycobacterium tuberculosis) was 6.25 µM (≈ 2.56 µg/mL).

Take `Cc1cnc2c(C(=O)NCCF)cn(Cc3nccc(OCC(F)(F)F)c3C)c2c1` [Compound 21, N-(2-fluoroethyl)-6-methyl-1-((3-methyl-4-(2,2,2-trifluoroethoxy)pyridin-2-yl)methyl)-1H-pyrrolo[3,2-b]pyridine-3-carboxamide]: the MIC (Mycobacterium tuberculosis) is 1.56 µM (≈ 0.662 µg/mL).

With `COc1ncnc(Cn2cc(C(=O)NCCF)c3ncc(F)cc32)c1C` [Compound 19, 6-fluoro-N-(2-fluoroethyl)-1-((6-methoxy-5-methylpyrimidin-4-yl)methyl)-1H-pyrrolo[3,2-b]pyridine-3-carboxamide], the MIC (Mycobacterium tuberculosis) came to 6.25 µM (≈ 2.26 µg/mL).

`COc1ncc(C#N)cc1Cn1cc(C(=O)NCCF)c2ncccc21` [Compound 14, 1-((5-cyano-2-methoxypyridin-3-yl)methyl)-N-(2-fluoroethyl)-1H-pyrrolo[3,2-b]pyridine-3-carboxamide]: the MIC (Mycobacterium tuberculosis) amounted to 3.12 µM (≈ 1.1 µg/mL).

Regarding `COc1ncnc(Cn2cc(C(=O)NCCF)c3ncc(Br)cc32)c1C` [Compound 20, 6-bromo-N-(2-fluoroethyl)-1-((6-methoxy-5-methylpyrimidin-4-yl)methyl)-1H-pyrrolo[3,2-b]pyridine-3-carboxamide], under “Mycobacterium tuberculosis”, the MIC came out at 0.781 µM (≈ 0.33 µg/mL).

With `COc1ncc(F)cc1Cn1cc(C(=O)NCCF)c2ncc(C)cc21` [Compound 15, 1-((5-fluoro-2-methoxypyridin-3-yl)methyl)-N-(2-fluoroethyl)-6-methyl-1H-pyrrolo[3,2-b]pyridine-3-carboxamide], the MIC (Mycobacterium tuberculosis) worked out at 1.56 µM (≈ 0.562 µg/mL).

For the compound `COc1ccc(F)c(F)c1Cn1cc(C(=O)NCCF)c2ncccc21` [Compound 5, 1-(2,3-difluoro-6-methoxybenzyl)-N-(2-fluoroethyl)-1H-pyrrolo[3,2-b]pyridine-3-carboxamide], the MIC (Mycobacterium tuberculosis) is below 0.66 µM.

In the case of `COc1ncnc(Cn2cc(C(=O)NC[C@H](C)F)c3ncc(C)cc32)c1C` [Compound 16, (S)—N-(2-fluoropropyl)-1-((6-methoxy-5-methylpyrimidin-4-yl)methyl)-6-methyl-1H-pyrrolo[3,2-b]pyridine-3-carboxamide], the MIC (Mycobacterium tuberculosis) stood at 0.156 µM (≈ 0.0579 µg/mL).

For `COc1ncnc(Cn2cc(NC(=O)CC3CC3)c3ncccc32)c1C` [Compound 25, 2-cyclopropyl-N-(1-((6-methoxy-5-methylpyrimidin-4-yl)methyl)-1H-pyrrolo[3,2-b]pyridin-3-yl)acetamide], the MIC (Mycobacterium tuberculosis) worked out at 25 µM (≈ 8.79 µg/mL).

Regarding `CC(c1c(F)cccc1F)n1cc(C(=O)NCCF)c2ncccc21` (centres unmarked) [Compound 1, 1-(1-(2,6-difluorophenyl)ethyl)-N-(2-fluoroethyl)-1H-pyrrolo[3,2-b]pyridine-3-carboxamide], the MIC (Mycobacterium tuberculosis) amounted to 12.5 µM (≈ 4.34 µg/mL).

Consider `Cc1cnc2c(C(=O)NCCO)cn(Cc3ncnc(OC(F)F)c3C)c2c1` [Compound 35, 1-((6-(Difluoromethoxy)-5-methylpyrimidin-4-yl)methyl)-N-(2-hydroxyethyl)-6-methyl-1H-pyrrolo[3,2-b]pyridine-3-carboxamide], for which the MIC (Mycobacterium tuberculosis) was below 0.39 µM.

For `COc1ncnc(Cn2cc(C(=O)NCCOC(F)(F)F)c3ncccc32)c1C` [Compound 23, 1-((6-methoxy-5-methylpyrimidin-4-yl)methyl)-N-(2-(trifluoromethoxy)ethyl)-1H-pyrrolo[3,2-b]pyridine-3-carboxamide], the MIC (Mycobacterium tuberculosis) amounted to 3.12 µM (≈ 1.28 µg/mL).

As to `COc1cnc2c(C(=O)NCC(F)F)cn(Cc3ncnc(N(C)C)c3C)c2c1` [Compound 40, N-(2,2-Difluoroethyl)-1-((6-(dimethylamino)-5-methylpyrimidin-4-yl)methyl)-6-methoxy-1H-pyrrolo[3,2-b]pyridine-3-carboxamide], the MIC (Mycobacterium tuberculosis) was below 0.39 µM.

For the compound `COc1ncnc(Cn2cc(C(=O)NC[C@@H](C)O)c3ncc(C)cc32)c1C` [Compound 28, (R)—N-(2-hydroxypropyl)-1-((6-methoxy-5-methylpyrimidin-4-yl)methyl)-6-methyl-1H-pyrrolo[3,2-b]pyridine-3-carboxamide], the MIC (Mycobacterium tuberculosis) came out at 6.25 µM (≈ 2.31 µg/mL).

Regarding `COc1cnc2c(C(=O)NCCO)cn(Cc3ncnc(N(C)C)c3C)c2c1` [Compound 41, 1-((6-(Dimethylamino)-5-methylpyrimidin-4-yl)methyl)-N-(2-hydroxyethyl)-6-methoxy-1H-pyrrolo[3,2-b]pyridine-3-carboxamide], the MIC (Mycobacterium tuberculosis) was below 0.39 µM.

For the compound `COc1cnc2c(C(=O)NCC(F)F)cn(Cc3ncnc(OC(F)F)c3C)c2c1` [Compound 43, N-(2,2-Difluoroethyl)-1-((6-(difluoromethoxy)-5-methylpyrimidin-4-yl)methyl)-6-methoxy-1H-pyrrolo[3,2-b]pyridine-3-carboxamide], the MIC (Mycobacterium tuberculosis) was below 0.39 µM.
